Data: patent US20240327417A1, “HETEROCYCLIC COMPOUNDS” (BeiGene Switzerland GmbH, priority 2021, published 2024)

Assays:
[1] = molecular target: T1, Full length DGKζ (in-house protein M1-V929) (Homo sapiens, UniProt Q13574); test: Biochemical DGK IC50 assay (ADP-Glo, lipid micelle substrate), DGKζ; conditions: 0.5 nM enzyme, 140 μM ATP, 80 μM DAG, 1 hour preincubation, 1 hour reaction, room temperature, read-out: IC50s for DGKζ
T1 construct: His (N); TEV cleavage site (N); made in house; host or cells: Sf9 insect cells (baculovirus, Bac-to-Bac)
T1 sequence (Q13574 1-929 isoform Q13574-4): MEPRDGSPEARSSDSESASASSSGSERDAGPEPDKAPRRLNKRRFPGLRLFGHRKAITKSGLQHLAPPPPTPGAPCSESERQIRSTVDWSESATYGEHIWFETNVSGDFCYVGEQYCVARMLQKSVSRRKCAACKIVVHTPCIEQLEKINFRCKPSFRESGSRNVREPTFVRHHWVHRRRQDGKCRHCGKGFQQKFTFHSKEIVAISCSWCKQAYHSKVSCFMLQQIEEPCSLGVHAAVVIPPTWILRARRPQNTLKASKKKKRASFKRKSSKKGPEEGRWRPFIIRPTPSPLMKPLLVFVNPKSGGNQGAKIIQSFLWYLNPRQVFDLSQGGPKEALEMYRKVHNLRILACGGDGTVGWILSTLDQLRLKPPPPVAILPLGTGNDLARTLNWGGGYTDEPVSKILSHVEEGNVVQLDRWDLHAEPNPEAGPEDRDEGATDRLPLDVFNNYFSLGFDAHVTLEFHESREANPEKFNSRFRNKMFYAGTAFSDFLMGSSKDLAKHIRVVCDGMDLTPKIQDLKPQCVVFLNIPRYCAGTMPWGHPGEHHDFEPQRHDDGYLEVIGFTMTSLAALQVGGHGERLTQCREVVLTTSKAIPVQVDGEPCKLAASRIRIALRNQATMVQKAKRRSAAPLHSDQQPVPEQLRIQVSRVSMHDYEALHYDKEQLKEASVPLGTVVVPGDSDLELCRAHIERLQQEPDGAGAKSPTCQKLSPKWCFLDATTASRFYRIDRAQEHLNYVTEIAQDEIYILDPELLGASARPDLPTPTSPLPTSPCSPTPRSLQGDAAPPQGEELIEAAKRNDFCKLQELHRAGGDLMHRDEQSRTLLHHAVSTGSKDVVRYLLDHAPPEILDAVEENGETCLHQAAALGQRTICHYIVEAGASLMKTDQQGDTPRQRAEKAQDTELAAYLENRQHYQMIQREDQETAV
Procedure: (§1) Enzymatic reactions of DGKζ, DGKα and DGKδ were performed using ADP-Glo assay with lipid micelle substrate. […] Full length DGKα (D21-10BG, SignalChem) and full length DGKδ (D23-10G, SignalChem) were purchased. Lipid micelle was prepared by dissolving DAG (Sigma, 317505-10MG) and PS (Sigma, P7769-100MG) with chloroform which was firtherly removed by rotary evaporation. The obtained residue was resuspended in buffer containing 25 mM HEPES pH 7.0, 0.5 mM EDTA and 160 mM Octyl β-D glucopyranoside by vigorous mixing and ultrasonic (IID, Scientz).
(§2) The inhibition activities testing for the compound disclosed herein were carried out at room temperature in assay buffer containing 50 mM HEPES, 10 mM MgCl2, 0.01% BSA, 0.1 mM Na3VO4, 0.005% Tween-20 and 0.01 mM CaCl2. Compounds in DMSO were dispensed into wells of a black 384 well plate (Corning 4514) using D300e digital dispenser (Tecan). The ranges of compounds final concentration were 1.55˜10000 nM or 23.3˜150000 nM. 3 μL 2× enzyme solution was added to wells. […] After 1 hour reaction, 5 μL ADP-Glo reagent (Promga V9101) was added and incubated for 40 minutes. 10 μL Kinase Detection reagent was added and incubated for 30 minutes. Luminescence was measured on a microplate reader (PHERAstar FSX, BMG labtech). The IC50s are calculated based on inhibition of enzyme activity in the presence of increasing concentrations of compounds.
Human His-TEV-DGK-zeta-pFastBac1 and human baculovirus samples was generated using the Bac-to-Bac baculovirus expression system (Invitrogen) according to the manufacturer's protocol. The DNA used for expression of DGK-zeta, have SEQ ID Nos: 1. Baculovirus amplification was achieved using infected SF9 cells at 1:2000 virus/cells ratios, and grown for 96 hours at 27° C. post-transfected.
The expression scaled up for each protein was carried out in the […] from CORNING. 4 L of 3×10^6 cells/mL Sf9 cells (Expression System, Invitrogen) grown in SF900™ II SFM insect medium (Expression System) was infected with virus stock at 1:200 virus/cells ratio, and grown for 48 hours at 27° C. post-transfection. The infected cell culture was harvested by centrifugation at 6000 rpm for 15 min 4° C. in a SORVALL LYNX6000 centrifuge. The cell pellets were stored at −80° C.
Full length human DGKζ produced as described above, was purified from Sf9 baculovirus-infected insect cell paste. The cells were lysed using sonication method, and the lysates were clarified by centrifugation.

[2] = molecular target: T2, Full length DGKα (D21-10BG, SignalChem) (Homo sapiens, UniProt P23743); test: Biochemical DGK IC50 assay (ADP-Glo, lipid micelle substrate), DGKα; conditions: 7.5 nM enzyme, 140 μM ATP, 80 μM DAG, 1 hour preincubation, 1 hour reaction, room temperature, read-out: IC50s for DGKα
T2 construct: Full length DGKα (D21-10BG, SignalChem); purchased SignalChem D21-10BG
T2 sequence (P23743 whole entry): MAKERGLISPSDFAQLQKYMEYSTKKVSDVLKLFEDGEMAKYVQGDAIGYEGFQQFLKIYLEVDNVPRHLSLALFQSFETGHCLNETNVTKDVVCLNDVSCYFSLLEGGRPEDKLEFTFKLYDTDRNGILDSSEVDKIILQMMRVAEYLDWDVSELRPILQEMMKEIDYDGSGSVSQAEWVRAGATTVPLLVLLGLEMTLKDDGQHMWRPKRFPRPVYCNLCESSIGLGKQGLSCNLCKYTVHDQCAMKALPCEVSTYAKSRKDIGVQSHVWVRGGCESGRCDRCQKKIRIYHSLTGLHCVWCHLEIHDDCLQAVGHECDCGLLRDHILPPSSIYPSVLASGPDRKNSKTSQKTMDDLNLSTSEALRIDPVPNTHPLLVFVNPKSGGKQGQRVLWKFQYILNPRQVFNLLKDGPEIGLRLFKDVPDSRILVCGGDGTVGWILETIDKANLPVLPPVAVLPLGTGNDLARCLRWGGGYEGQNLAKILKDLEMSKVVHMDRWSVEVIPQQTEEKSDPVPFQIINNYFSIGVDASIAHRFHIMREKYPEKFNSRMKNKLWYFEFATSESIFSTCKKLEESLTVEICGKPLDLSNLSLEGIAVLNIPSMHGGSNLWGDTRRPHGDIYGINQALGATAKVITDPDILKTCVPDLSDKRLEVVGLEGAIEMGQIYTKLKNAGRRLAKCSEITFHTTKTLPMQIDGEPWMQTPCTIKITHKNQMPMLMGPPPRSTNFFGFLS
Procedure: as §1, §2

SMILES | IC50 [1] [nM] | IC50 [2] [nM]
CC#CCc1cn2c(n1)c(N1C[C@@H](CC)N(C(C)c3ccc4nc(C)sc4c3)C[C@@H]1CC)cc(=O)n2C (single isomer, unassigned) [Compound A68b] | > 10000 | 527
CC[C@H]1CN(C(C)c2ccc(OC)cn2)[C@H](CC)CN1c1cc(=O)n(C)n2cc(CC#N)nc12 (stereo partly drawn) [Compound A48, 2-(8-((2S,5R)-2,5-diethyl-4-(1-(5-methoxypyridin-2-yl)ethyl)piperazin-1-yl)-5-methyl-6-oxo-5,6-dihydroimidazo[1,2-b]pyridazin-2-yl)acetonitrile] | 445 | 30
CC[C@H]1CN(C(C)c2ccc(C(C)(C)F)nc2)[C@H](CC)CN1c1cc(=O)n(C)n2cc(CC#N)nc12 (single isomer, unassigned) [Compound A46b] | 877 | 671
CC[C@@H]1CN(c2cc(=O)n(C)n3cc(COC)nc23)[C@@H](C)CN1C(C)c1ccc(C(F)(F)F)cc1F (single isomer, unassigned) [Compound A16a] | 1230 | 4650
CC[C@H]1CN(C(C)c2ccc(C3CC3(F)F)nc2)[C@H](CC)CN1c1cc(=O)n(C)n2cc(CC#N)nc12 (single isomer, unassigned) [Compound A70b] | 886 | 466
COc1cnc2ccc(C(C)N3C[C@H](C)N(c4cc(=O)n(C)n5cc(CC#N)nc45)C[C@H]3C)cc2n1 (stereo partly drawn) [Compound A20, 2-(8-((2S,5R)-4-(1-(3-methoxyquinoxalin-6-yl)ethyl)-2,5-dimethylpiperazin-1-yl)-5-methyl-6-oxo-5,6-dihydroimidazo[1,2-b]pyridazin-2-yl)acetonitrile] | 18 | 1020
CC[C@H]1CN(C(C)c2ccc3scnc3c2F)[C@H](CC)CN1c1cc(=O)n(C)n2cc(CC#N)nc12 (single isomer, unassigned) [Compound A66b] | 1440 | 1640
CC[C@H]1CN(C(C)c2ccc(F)cc2OC)[C@H](CC)CN1c1cc(=O)n(C)n2cc(CC#N)nc12 (stereo partly drawn) [Compound A32, 2-(8-((2S,5R)-2,5-diethyl-4-(1-(4-fluoro-2-methoxyphenyl)ethyl)piperazin-1-yl)-5-methyl-6-oxo-5,6-dihydroimidazo[1,2-b]pyridazin-2-yl)acetonitrile] | 110 | 6420
CC[C@@H]1CN(c2cc(=O)n(C)n3cc(CC#N)nc23)[C@@H](C)CN1C(C)c1cc2sc(C)nc2cc1F (single isomer, unassigned) [Compound A60b] | 2930 | 4410
CC[C@H]1CN(C(C)c2ccc3ncsc3n2)[C@H](CC)CN1c1cc(=O)n(C)n2cc(CC#N)nc12 (single isomer, unassigned) [Compound A57b] | 357 | 172
CC(C#N)c1cn2c(n1)c(N1C[C@@H](C)N(C(C)c3ccc4nccnc4c3)C[C@@H]1C)cc(=O)n2C (stereo partly drawn) [Compound A6, 2-(8-((2S,5R)-2,5-dimethyl-4-(1-(quinoxalin-6-yl)ethyl)piperazin-1-yl)-5-methyl-6-oxo-5,6-dihydroimidazo[1,2-b]pyridazin-2-yl)propanenitrile] | > 10000 | > 10000
CC[C@H]1CN(C(C)c2ccc(C(C)(C)O)nc2)[C@H](CC)CN1c1cc(=O)n(C)n2cc(CC#N)nc12 (stereo partly drawn) [Compound A41, 2-(8-((2S,5R)-2,5-diethyl-4-(1-(6-(2-hydroxypropan-2-yl)pyridin-3-yl)ethyl)piperazin-1-yl)-5-methyl-6-oxo-5,6-dihydroimidazo[1,2-b]pyridazin-2-yl)acetonitrile] | 844 | 1270
COCc1cn2c(n1)c(N1C[C@@H](C)N(C(C)c3ccc4nccnc4c3)C[C@@H]1C)cc(=O)n2C (stereo partly drawn) [Compound A4, 8-((2S,5R)-2,5-dimethyl-4-(1-(quinoxalin-6-yl)ethyl)piperazin-1-yl)-2-(methoxymethyl)-5-methylimidazo[1,2-b]pyridazin-6(5H)-one] | 480 | 4000
CC[C@H]1CN(C(C)c2ccc(C3CC3)cn2)[C@H](CC)CN1c1cc(=O)n(C)n2cc(CC#N)nc12 (stereo partly drawn) [Compound A52, 2-(8-((2S,5R)-4-(1-(5-cyclopropylpyridin-2-yl)ethyl)-2,5-diethylpiperazin-1-yl)-5-methyl-6-oxo-5,6-dihydroimidazo[1,2-b]pyridazin-2-yl)acetonitrile] | 75 | 18

The remaining lines, values ahead:

IC50 [1] [nM] | IC50 [2] [nM] | SMILES
1010 | 1520 | CCC(c1ccc(C2CC2)nc1)N1C[C@H](CC)N(c2cc(=O)n(C)n3cc(CC#N)nc23)C[C@H]1CC (single isomer, unassigned) [Compound A89b]
132 | 575 | CC[C@H]1CN(C(C)c2ccc3nc(C)sc3c2)[C@H](CC)CN1c1c(C#N)c(=O)n(C)n2cc(CC#N)nc12 (stereo partly drawn) [Compound A111, 2-(cyanomethyl)-8-((2S,5R)-2,5-diethyl-4-(1-(2-methylbenzo[d]thiazol-6-yl)ethyl)piperazin-1-yl)-5-methyl-6-oxo-5,6-dihydroimidazo[1,2-b]pyridazine-7-carbonitrile]
182 | 510 | CC[C@@H]1CN(c2cc(=O)n(C)n3cc(CC#N)nc23)[C@@H](COC)CN1C(C)c1ccc2nc(C)sc2n1 (single isomer, unassigned) [Compound A108b]
> 10000 | 42600 | CC[C@H]1CN(C(C)c2ccc3nc(C)sc3n2)[C@H](CC)CN1c1c(Br)c(=O)n(C)n2cc(CC#N)nc12 (stereo partly drawn) [Compound A83, 2-(7-bromo-8-((2S,5R)-2,5-diethyl-4-(1-(2-methylthiazolo[5,4-b]pyridin-5-yl)ethyl)piperazin-1-yl)-5-methyl-6-oxo-5,6-dihydroimidazo[1,2-b]pyridazin-2-yl)acetonitrile]
76 | 23 | CC[C@H]1CN(C(C)c2ccc(OC)cc2)[C@H](CC)CN1c1cc(=O)n(C)n2cc(CC#N)nc12 (stereo partly drawn) [Compound A72, 2-(8-((2S,5R)-2,5-diethyl-4-(1-(4-methoxyphenyl)ethyl)piperazin-1-yl)-5-methyl-6-oxo-5,6-dihydroimidazo[1,2-b]pyridazin-2-yl)acetonitrile]
48 | 3.3 | CC[C@H]1CN(C(C)c2ccc3cc(F)sc3n2)[C@H](CC)CN1c1cc(=O)n(C)n2cc(CC#N)nc12 (single isomer, unassigned) [Compound A105b]
36 | 18 | CC[C@@H]1CN(c2cc(=O)n(C)n3cc(CC#N)nc23)[C@@H](C)CN1C(C)c1ccc2ccsc2n1 (stereo partly drawn) [Compound A86, 2-(8-((2S,5R)-5-ethyl-2-methyl-4-(1-(thieno[2,3-b]pyridin-6-yl)ethyl)piperazin-1-yl)-5-methyl-6-oxo-5,6-dihydroimidazo[1,2-b]pyridazin-2-yl)acetonitrile]
3500 | 752 | CC[C@H]1CN(C(C)c2ccc3nc(C)sc3n2)[C@H](CC)CN1c1c(C#N)c(=O)n(C)n2cc(CC#N)nc12 (single isomer, unassigned) [Compound A112a]
2940 | 712 | CCC(c1ccc2nc(C)sc2n1)N1C[C@H](CC)N(c2cc(=O)n(C)n3cc(CC#N)nc23)C[C@H]1C (single isomer, unassigned) [Compound A98a]
15 | 26 | CC[C@H]1CN(C(C)c2ccc3nc(C)sc3n2)[C@H](CC)CN1c1c(F)c(=O)n(C)n2cc(CC#N)nc12 (single isomer, unassigned) [Compound A82a]
127 | 68 | CC[C@H]1CN(C(C)c2ccc3ncsc3n2)[C@H](CC)CN1c1c(C#N)c(=O)n(C)n2cc(CC#N)nc12 (stereo partly drawn) [Compound A114, 2-(cyanomethyl)-8-((2S,5R)-2,5-diethyl-4-(1-(thiazolo[5,4-b]pyridin-5-yl)ethyl)piperazin-1-yl)-5-methyl-6-oxo-5,6-dihydroimidazo[1,2-b]pyridazine-7-carbonitrile]
